{"source": "patent US20080318783A1", "about": "“Use of abscisic acid seed treatment to enhance corn emergence after early planting” (priority 2007, published 2008)", "format_in_all_cases": "in vivo, Zea mays", "key": {"[1]": {"system": "\"Hughes High\" hybrid corn seed", "assay": "Seed treatment with ABA, cold damage (ice, 4 days) during germination in moist towels", "details": "48 h at 25° C., then ice 4 days", "description": "ABA was applied to corn seed at 0, 1, 5, 25 and 125 g/cwt (seed weight basis). The ABA was first converted to the sodium salt to render it soluble before making up the experimental seed treatment slurries. The treatments were made up in 3 ml samples of an aqueous slurry. All of the seed treatment slurry samples contained CF-Clear film-forming agent and Colorcoat Red (Becker Underwood), each at loz/cwt, and 0.167 oz/cwt Maxim XL fungicide (Syngenta). The slurry application volume was 20 oz/cwt (cwt=100 lbs of seed). One hundred gram samples of “Hughes High” hybrid corn seed were treated with the experimental slurries using a Hege 11 seed treater with a six-inch bowl.\nThree replications of 50 seeds each were planted were planted in moist towels and germinated in the dark at 25° C. for 48 hours. The rolled towels were then packed in ice for 4 days. After the cold period the towels were blotted and germination continued until the seedlings were large enough so that each seedling could be scored. In the case of the 125 g rate, this took 2 weeks. Seedling organs were scored independently for damage to the primary root, seminal roots, mesocotyl, coleoptile and the scutellar node."}, "Corn seed (Hughes 1883) [2]": {"system": "Corn seed (Hughes 1883)", "assay": "Soil test, chilling at spiking (chilling at point of initial emergence)", "details": "for Strong seedlings (%) / Viable seedlings (%): soil, 1° C. 4 days applied at initial emergence (spiking)", "description": "(§1) Corn seed (Hughes 1883) was treated with ABA ammonium salt as described under Example 2. ABA rates of 0, 5, 10 and 25 g/cwt were applied.\n(§2) The seed was planted in plastic boxes containing lkg of typical agricultural silt loam. Fifty seeds were planted 3 cm deep in each plastic box, and the soil in the box was adjusted to 23% soil moisture (wet-weight basis). Two replications of the experiment were performed. Two kinds of cold tolerance assays were conducted, “standard delayed chilling” and “chilling at spiking.” The boxes for the standard delayed chilling were […] and transferred to 1° C. for four days. Boxes for the “chilling at spiking” treatment were allowed to germinate at 25° C. until the coleoptiles were first observed emerging from the soil. This common point of development varied from 3 to 6 days depending upon the dose of ABA. Then these boxes too were transferred to the 1° C. chamber for four days.\n(§3) After the cold treatment the boxes were moved to the 25° C. chamber for one week. The soil was washed from the seedlings and each seedling scored for damage as described under Example 2. “Viable seedlings” were seedlings capable of surviving under typical field conditions."}, "Corn seed (Hughes 1883) [3]": {"system": "Corn seed (Hughes 1883)", "assay": "Soil test, standard delayed chilling (severe chilling after 2 days germination)", "details": "for Strong seedlings (%) / Viable seedlings (%): soil, 2 days germination, then 1° C. 4 days", "description": "as §1, §2, §3"}, "Corn seed (Hughes 5813)": {"system": "Corn seed (Hughes 5813)", "assay": "Seed treatment with ABA and stimulators of guanylate cyclase, cold damage during germination", "description": "Corn seed (Hughes 5813) was treated with sodium ABA salt as described under Example 3. ABA rates of 0 and 20 ug/seed were applied either alone or with compounds that are selective and potent activators of soluble guanylate cyclase in animal and plant cells. These agent are YC-1 (3-(5′-hydroxymethyl-2′-furyl)-1-benzylindazole) and BAY 41-2272 (5-cyclopropyl-2-[1-(2-fluoro-benzyl)-1H-pyrazolo[3,4-b]pyridine-3-yl]pyrimidin-4-ylamine)."}, "[4]": {"system": "Corn (\"Hughes High\" variety) seedlings", "assay": "Dip treatment of 2-day old corn seedlings, cold damage after 0° C. for 4 days (rolled towels)", "details": "for Adventitious root growth (%) / Destroyed roots (%) / Lethal shoot (%): ~30 s, 0° C. 4 days, scored 3 days later", "description": "Corn (“Hughes High” variety) was germinated in the dark in moist rolled towels at 25° C. for 2 days. Seedlings were selected that were undamaged, with a radicle of 1-2 cm and a coleoptile of 0.5 to 1 cm in length. Solutions in water with 5% ethanol were made with different concentrations of ABA and PBI-429. The seedlings were dipped in the solutions with gentle agitation for approximately 30 seconds and drained. The seedlings were placed on moist towels, gently rolled and held at 18° C. for 16 hours. Then the rolled towels were packed in ice for four days. After the chilling period, the rolled towels were blotted to remove excess water and transferred to a 25° C. chamber. Seedling damage was scored 3 days later. Lethal injury of the shoot consisted of either destruction of the mesocotyl or splitting or reduction of the coleoptile judged sufficient to prevent emergence of seedlings in the field (although this trial was conducted in towels). Seedlings with destroyed roots had no living primary or seminal roots. Seedlings with adventitious root growth from the mesocotyl were counted."}, "[5]": {"details": "ABA (sodium salt) seed treatment 1 g/cwt"}, "[6]": {"details": "ABA (sodium salt) seed treatment 5 g/cwt"}, "[7]": {"details": "ABA (sodium salt) seed treatment 25 g/cwt"}, "[8]": {"details": "ABA (sodium salt) seed treatment 125 g/cwt"}, "[9]": {"details": "ABA ammonium salt seed treatment 5 g/cwt"}, "[10]": {"details": "ABA ammonium salt seed treatment 10 g/cwt"}, "[11]": {"details": "ABA ammonium salt seed treatment 25 g/cwt"}, "[12]": {"details": "ABA (sodium salt) 20 μg/seed alone, sGC activator 0 μg/seed"}, "[13]": {"details": "Bay 41-2272 1 μg/seed, ABA 0 μg/seed"}, "[14]": {"details": "Bay 41-2272 10 μg/seed, ABA 0 μg/seed"}}, "data": [{"molecule": "S-(+)-abscisic acid [ABA]", "values": [{"measurement": "Seedlings with lethal root injury (%)", "setting": "[1]; [5]", "value": 23.3, "unit": "%"}, {"measurement": "Seedlings with lethal shoot injury (%)", "setting": "[1]; [5]", "value": 19.3, "unit": "%"}, {"measurement": "Strong seedlings (%)", "setting": "[1]; [5]", "value": 18.0, "unit": "%"}, {"measurement": "Seedlings with lethal root injury (%)", "setting": "[1]; [6]", "value": 0.7, "unit": "%"}, {"measurement": "Seedlings with lethal shoot injury (%)", "setting": "[1]; [6]", "value": 8.0, "unit": "%"}, {"measurement": "Strong seedlings (%)", "setting": "[1]; [6]", "value": 88.7, "unit": "%"}, {"measurement": "Seedlings with lethal root injury (%)", "setting": "[1]; [7]", "value": 0.0, "unit": "%"}, {"measurement": "Seedlings with lethal shoot injury (%)", "setting": "[1]; [7]", "value": 15.5, "unit": "%"}, {"measurement": "Strong seedlings (%)", "setting": "[1]; [7]", "value": 95.3, "unit": "%"}, {"measurement": "Seedlings with lethal root injury (%)", "setting": "[1]; [8]", "value": 0.7, "unit": "%"}, {"measurement": "Seedlings with lethal shoot injury (%)", "setting": "[1]; [8]", "value": 11.4, "unit": "%"}, {"measurement": "Strong seedlings (%)", "setting": "[1]; [8]", "value": 81.3, "unit": "%"}, {"measurement": "Strong seedlings (%)", "setting": "Corn seed (Hughes 1883) [2]; [9]", "value": 0, "unit": "%"}, {"measurement": "Viable seedlings (%)", "setting": "Corn seed (Hughes 1883) [2]; [9]", "value": 5, "unit": "%"}, {"measurement": "Strong seedlings (%)", "setting": "Corn seed (Hughes 1883) [2]; [10]", "value": 18, "unit": "%"}, {"measurement": "Viable seedlings (%)", "setting": "Corn seed (Hughes 1883) [2]; [10]", "value": 62, "unit": "%"}, {"measurement": "Strong seedlings (%)", "setting": "Corn seed (Hughes 1883) [2]; [11]", "value": 10, "unit": "%"}, {"measurement": "Viable seedlings (%)", "setting": "Corn seed (Hughes 1883) [2]; [11]", "value": 23, "unit": "%"}, {"measurement": "Protection of seedlings from cold damage (in words)", "setting": "Corn seed (Hughes 1883) [2]; seed treatment, chilling at spiking", "value": "results not only from delay of germination, but from induction of cold tolerance in the tissue"}, {"measurement": "Strong seedlings (%)", "setting": "Corn seed (Hughes 1883) [3]; [9]", "value": 53, "unit": "%"}, {"measurement": "Viable seedlings (%)", "setting": "Corn seed (Hughes 1883) [3]; [9]", "value": 99.5, "unit": "%"}, {"measurement": "Strong seedlings (%)", "setting": "Corn seed (Hughes 1883) [3]; [10]", "value": 96, "unit": "%"}, {"measurement": "Viable seedlings (%)", "setting": "Corn seed (Hughes 1883) [3]; [10]", "value": 99.5, "unit": "%"}, {"measurement": "Strong seedlings (%)", "setting": "Corn seed (Hughes 1883) [3]; [11]", "value": 100, "unit": "%"}, {"measurement": "Viable seedlings (%)", "setting": "Corn seed (Hughes 1883) [3]; [11]", "value": 100, "unit": "%"}, {"measurement": "Protection from cold in field soil (in words)", "setting": "Corn seed (Hughes 1883) [3]; delivered as a seed treatment", "value": "protection of germinating seeds and young seedlings in field soil"}, {"measurement": "Percent Strong Seedlings", "setting": "Corn seed (Hughes 5813); [12]", "value": 67, "unit": "%"}, {"measurement": "Percent Viable Seedlings", "setting": "Corn seed (Hughes 5813); [12]", "value": 100, "unit": "%"}, {"measurement": "Adventitious root growth (%)", "setting": "[4]; ABA dip 10 ppm", "value": 7, "unit": "%"}, {"measurement": "Destroyed roots (%)", "setting": "[4]; ABA dip 10 ppm", "value": 86, "unit": "%"}, {"measurement": "Lethal shoot (%)", "setting": "[4]; ABA dip 10 ppm", "value": 62, "unit": "%"}, {"measurement": "Adventitious root growth (%)", "setting": "[4]; ABA dip 100 ppm", "value": 20, "unit": "%"}, {"measurement": "Destroyed roots (%)", "setting": "[4]; ABA dip 100 ppm", "value": 84, "unit": "%"}, {"measurement": "Lethal shoot (%)", "setting": "[4]; ABA dip 100 ppm", "value": 47, "unit": "%"}, {"measurement": "Adventitious root growth (%)", "setting": "[4]; ABA dip 1000 ppm", "value": 89, "unit": "%"}, {"measurement": "Destroyed roots (%)", "setting": "[4]; ABA dip 1000 ppm", "value": 48, "unit": "%"}, {"measurement": "Lethal shoot (%)", "setting": "[4]; ABA dip 1000 ppm", "value": 11, "unit": "%"}, {"measurement": "Protection of seedlings from cold injury (in words)", "setting": "[4]; applied to the seedling prior to cold stress", "value": "can provide protection from injury, and stimulate adventitious root growth"}]}, {"molecule": "Nc1nc(-c2nn(Cc3ccccc3F)c3ncccc23)ncc1C1CC1", "note": "[Bay 41-2272, 5-cyclopropyl-2-[1-(2-fluoro-benzyl)-1H-pyrazolo[3,4-b]pyridine-3-yl]pyrimidin-4-ylamine]", "values": [{"measurement": "Percent Strong Seedlings", "setting": "Corn seed (Hughes 5813); [13]", "value": 1, "unit": "%"}, {"measurement": "Percent Viable Seedlings", "setting": "Corn seed (Hughes 5813); [13]", "value": 65, "unit": "%"}, {"measurement": "Percent Strong Seedlings", "setting": "Corn seed (Hughes 5813); [14]", "value": 0, "unit": "%"}, {"measurement": "Percent Viable Seedlings", "setting": "Corn seed (Hughes 5813); [14]", "value": 64, "unit": "%"}]}, {"molecule": "OCc1ccc(-c2nn(Cc3ccccc3)c3ccccc23)o1", "note": "[YC-1, 3-(5′-hydroxymethyl-2′-furyl)-1-benzylindazole]", "values": [{"measurement": "Percent Strong Seedlings", "setting": "Corn seed (Hughes 5813); YC-1 1 μg/seed, ABA 0 μg/seed", "value": 0, "unit": "%"}, {"measurement": "Percent Viable Seedlings", "setting": "Corn seed (Hughes 5813); YC-1 1 μg/seed, ABA 0 μg/seed", "value": 44, "unit": "%"}, {"measurement": "Percent Strong Seedlings", "setting": "Corn seed (Hughes 5813); YC-1 10 μg/seed, ABA 0 μg/seed", "value": 4, "unit": "%"}, {"measurement": "Percent Viable Seedlings", "setting": "Corn seed (Hughes 5813); YC-1 10 μg/seed, ABA 0 μg/seed", "value": 46, "unit": "%"}]}]}
